{"source": "ChEMBL document CHEMBL4261654", "about": "“Synthesis and in vitro antitumor activity of novel alkenyl derivatives of pyridoxine, bioisosteric analogs of feruloyl methane” (Bioorg Med Chem, 2018)", "key": {"[1]": {"system": "PC-3", "assay": "Induction of apoptosis in human PC3 cells assessed as late apoptotic cells at 50 uM after 24 hrs by Annexin V-PE/7-AAD staining-based flow cytometric analysis (reference value: 8%)", "assay_type": "functional"}, "[2]": {"system": "MCF7", "assay": "Antiproliferative activity against human MCF7 cells after 72 hrs by MTT assay", "assay_type": "functional, cell-based", "conditions": "MCF7, 72 h"}, "[3]": {"system": "HEK293", "assay": "Antiproliferative activity against human HEK293 cells after 72 hrs by MTT assay", "assay_type": "cell-based", "conditions": "HEK293, 72 h"}, "[4]": {"assay": "Antiproliferative activity against HSF cells after 72 hrs by MTT assay", "assay_type": "cell-based", "conditions": "Homo sapiens"}, "[5]": {"system": "PC-3", "assay": "Antiproliferative activity against human PC3 cells after 72 hrs by MTT assay", "assay_type": "functional, cell-based", "conditions": "PC-3, 72 h"}, "[6]": {"system": "A498", "assay": "Antiproliferative activity against human A498 cells after 72 hrs by MTT assay", "assay_type": "functional, cell-based", "conditions": "A498, 72 h"}, "[7]": {"system": "SNB-19", "assay": "Antiproliferative activity against human SNB19 cells after 72 hrs by MTT assay", "assay_type": "functional, cell-based", "conditions": "SNB-19, 72 h"}, "[8]": {"system": "M14", "assay": "Antiproliferative activity against human M14 cells after 72 hrs by MTT assay", "assay_type": "functional, cell-based", "conditions": "M14, 72 h"}, "[9]": {"system": "OVCAR-4", "assay": "Antiproliferative activity against human OVCAR4 cells after 72 hrs by MTT assay", "assay_type": "functional, cell-based", "conditions": "OVCAR-4, 72 h"}, "[10]": {"system": "NCI-H322M", "assay": "Antiproliferative activity against human NCI-H322M cells after 72 hrs by MTT assay", "assay_type": "functional, cell-based"}, "[11]": {"system": "HCT-15", "assay": "Antiproliferative activity against human HCT15 cells after 72 hrs by MTT assay", "assay_type": "functional, cell-based", "conditions": "HCT-15, 72 h"}, "[12]": {"system": "HCT-116", "assay": "Antiproliferative activity against human HCT116 cells after 72 hrs by MTT assay", "assay_type": "functional, cell-based", "conditions": "HCT-116, 72 h"}, "[13]": {"system": "MDA-MB-231", "assay": "Antiproliferative activity against human MDA-MB-231 cells after 72 hrs by MTT assay", "assay_type": "functional, cell-based", "conditions": "MDA-MB-231, 72 h"}, "[14]": {"system": "PC-3", "assay": "Antiproliferative activity in human PC3 cells up to 50 uM measured during 120 hrs each 15 mins by RTCA DP based cellular impedance analysis", "assay_type": "functional"}, "[15]": {"system": "PC-3", "assay": "Antimigratory activity in human PC3 cells up to 50 uM measured during 120 hrs each 15 mins by RTCA DP based cellular impedance analysis", "assay_type": "functional"}, "[16]": {"system": "PC-3", "assay": "Antiproliferative activity in human PC3 cells at 2 to 10 uM measured during 120 hrs each 15 mins by RTCA DP based cellular impedance analysis", "assay_type": "functional, cell-based"}, "[17]": {"system": "PC-3", "assay": "Cell cycle arrest in human PC3 cells assessed as accumulation at G0/G1 phase at 10 uM after 72 hrs by RNase/propidium iodide staining-based flow cytometric analysis (reference value: 61 +/- 3%)", "assay_type": "functional"}, "[18]": {"system": "PC-3", "assay": "Cell cycle arrest in human PC3 cells assessed as accumulation at S phase at 10 uM after 72 hrs by RNase/propidium iodide staining-based flow cytometric analysis (reference value: 17 +/- 1%)", "assay_type": "functional"}, "[19]": {"system": "PC-3", "assay": "Cell cycle arrest in human PC3 cells assessed as accumulation at G2/M phase at 10 uM after 72 hrs by RNase/propidium iodide staining-based flow cytometric analysis (reference value: 20 +/- 3%)", "assay_type": "functional"}, "[20]": {"system": "PC-3", "assay": "Cell cycle arrest in human PC3 cells assessed as accumulation at G0/G1 phase at 70 uM after 72 hrs by RNase/propidium iodide staining-based flow cytometric analysis (reference value: 61 +/- 3%)", "assay_type": "functional"}, "[21]": {"system": "PC-3", "assay": "Cell cycle arrest in human PC3 cells assessed as accumulation at S phase at 70 uM after 72 hrs by RNase/propidium iodide staining-based flow cytometric analysis (reference value: 17 +/- 1%)", "assay_type": "functional"}, "[22]": {"system": "PC-3", "assay": "Cell cycle arrest in human PC3 cells assessed as accumulation at G2/M phase at 70 uM after 72 hrs by RNase/propidium iodide staining-based flow cytometric analysis (reference value: 20 +/- 3%)", "assay_type": "functional"}, "[23]": {"system": "PC-3", "assay": "Induction of apoptosis in human PC3 cells assessed as late apoptotic cells at 150 uM after 24 hrs by Annexin V-PE/7-AAD staining-based flow cytometric analysis (reference value: 8%)", "assay_type": "functional"}, "[24]": {"assay": "Antioxidant activity assessed as ferric ion reducing activity at 20 to 320 umol after 20 mins by FRAP assay", "assay_type": "functional"}, "[25]": {"system": "PC-3", "assay": "Induction of apoptosis in human PC3 cells assessed as necrotic cells at 50 uM after 24 hrs by Annexin V-PE/7-AAD staining-based flow cytometric analysis (reference value: 14%)", "assay_type": "functional"}, "[26]": {"system": "PC-3", "assay": "Induction of apoptosis in human PC3 cells assessed as early apoptotic cells at 50 uM after 24 hrs by Annexin V-PE/7-AAD staining-based flow cytometric analysis (reference value: 2%)", "assay_type": "functional"}, "[27]": {"system": "PC-3", "assay": "Induction of apoptosis in human PC3 cells assessed as viable cells at 50 uM after 24 hrs by Annexin V-PE/7-AAD staining-based flow cytometric analysis (reference value: 70%)", "assay_type": "functional", "conditions": "PC-3, 24 h, read-out: Activity"}, "[28]": {"system": "PC-3", "assay": "Induction of apoptosis in human PC3 cells assessed as necrotic cells at 150 uM after 24 hrs by Annexin V-PE/7-AAD staining-based flow cytometric analysis (reference value: 14%)", "assay_type": "functional"}, "[29]": {"system": "PC-3", "assay": "Induction of apoptosis in human PC3 cells assessed as early apoptotic cells at 150 uM after 24 hrs by Annexin V-PE/7-AAD staining-based flow cytometric analysis (reference value: 2%)", "assay_type": "functional"}, "[30]": {"system": "PC-3", "assay": "Induction of apoptosis in human PC3 cells assessed as viable cells at 150 uM after 24 hrs by Annexin V-PE/7-AAD staining-based flow cytometric analysis (reference value: 70%)", "assay_type": "functional", "conditions": "PC-3, 24 h, read-out: Activity"}, "[31]": {"system": "PC-3", "assay": "Induction of mitochondrial membrane potential loss in human PC3 cells assessed as fluorescence intensity at 50 uM after 24 hrs by TMRE dye-based flow cytometric analysis (reference value: 10101 +/- 853)", "assay_type": "functional"}, "[32]": {"system": "PC-3", "assay": "Induction of mitochondrial membrane potential loss in human PC3 cells assessed as fluorescence intensity at 150 uM after 24 hrs by TMRE dye-based flow cytometric analysis (reference value: 10101 +/- 853)", "assay_type": "functional"}, "[33]": {"system": "PC-3", "assay": "Induction of apoptosis in human PC3 cells assessed as intracellular ROS levels by measuring fluoresence intensity at 50 uM after 24 hrs by DCFH-DA staining-based flow cytometric analysis (reference value: 3176 +/- 398)", "assay_type": "functional"}, "[34]": {"system": "PC-3", "assay": "Induction of apoptosis in human PC3 cells assessed as intracellular ROS levels by measuring fluoresence intensity at 150 uM after 24 hrs by DCFH-DA staining-based flow cytometric analysis (reference value: 3176 +/- 398)", "assay_type": "functional"}}, "note": "Active and inactive are the calls of the source. The calls are words filed in the database; no cut-off is given here.", "data": [{"smiles": "COc1cc(/C=C/C(C)=O)ccc1O", "note": "[DEHYDROZINGERONE]", "values": [{"measurement": "Activity", "setting": "[1]", "result": 13, "unit": "%"}, {"measurement": "IC50", "setting": "[2]", "result": 31, "unit": "µM"}, {"measurement": "IC50", "setting": "[3]", "result": 64, "unit": "µM"}, {"measurement": "IC50", "setting": "[4]", "result": 176, "unit": "µM"}, {"measurement": "IC50", "setting": "[5]", "result": 68, "unit": "µM"}, {"measurement": "IC50", "setting": "[6]", "result": 125, "unit": "µM"}, {"measurement": "IC50", "setting": "[7]", "result": 138, "unit": "µM"}, {"measurement": "IC50", "setting": "[8]", "result": 550, "unit": "µM"}, {"measurement": "IC50", "setting": "[9]", "result": 139, "unit": "µM"}, {"measurement": "IC50", "setting": "[10]", "result": 96, "unit": "µM"}, {"measurement": "IC50", "setting": "[11]", "result": 65, "unit": "µM"}, {"measurement": "IC50", "setting": "[12]", "result": 70, "unit": "µM"}, {"measurement": "IC50", "setting": "[13]", "result": 86, "unit": "µM"}, {"measurement": "inhibition (INH)", "setting": "[14]", "result": 47, "unit": "%"}, {"measurement": "inhibition (INH)", "setting": "[15]", "result": 78, "unit": "%"}, {"measurement": "Activity", "setting": "[16]", "result": "inactive"}, {"measurement": "Activity", "setting": "[17]", "result": 60, "unit": "%"}, {"measurement": "Activity", "setting": "[18]", "result": 18, "unit": "%"}, {"measurement": "Activity", "setting": "[19]", "result": 21, "unit": "%"}, {"measurement": "Activity", "setting": "[20]", "result": 49, "unit": "%"}, {"measurement": "Activity", "setting": "[21]", "result": 17, "unit": "%"}, {"measurement": "Activity", "setting": "[22]", "result": 31, "unit": "%"}, {"measurement": "Activity", "setting": "[23]", "result": 16, "unit": "%"}, {"measurement": "Activity", "setting": "[24]", "result": "Active"}, {"measurement": "Activity", "setting": "[25]", "result": 13, "unit": "%"}, {"measurement": "Activity", "setting": "[26]", "result": 3, "unit": "%"}, {"measurement": "viability at 50 µM", "setting": "[27]", "result": 70, "unit": "%"}, {"measurement": "Activity", "setting": "[28]", "result": 16, "unit": "%"}, {"measurement": "Activity", "setting": "[29]", "result": 3, "unit": "%"}, {"measurement": "viability at 150 µM", "setting": "[30]", "result": 64, "unit": "%"}, {"measurement": "Flu intensity", "setting": "[31]", "result": 7701}, {"measurement": "Flu intensity", "setting": "[32]", "result": 7859}, {"measurement": "Flu intensity", "setting": "[33]", "result": 2024}, {"measurement": "Flu intensity", "setting": "[34]", "result": 7502}]}]}
